Numbers after ± are expanded uncertainties.
Assay: mn = molality of the nth substance listed, in mol/kg
Details: 100 kPa, Liquid; for viscosity: Capillary tube (Ostwald / Ubbelohde) method; for electrical conductivity: Direct current cell with electrodes; for mass density: Vibrating tube method

CCCCn1cc[n+](C)c1.O=C([O-])c1ccccc1O [1-butyl-3-methylimidazolium salicylate] + O
viscosity (293.15 K, m1 = 0.0058): 1.031 ± 0.021 mPa·s | viscosity (293.15 K, m1 = 0.0071): 1.035 ± 0.022 mPa·s | viscosity (293.15 K, m1 = 0.0117): 1.046 ± 0.022 mPa·s | viscosity (293.15 K, m1 = 0.0205): 1.065 ± 0.022 mPa·s | viscosity (293.15 K, m1 = 0.0353): 1.091 ± 0.023 mPa·s | viscosity (293.15 K, m1 = 0.0384): 1.096 ± 0.023 mPa·s | viscosity (293.15 K, m1 = 0.0552): 1.123 ± 0.023 mPa·s | viscosity (293.15 K, m1 = 0.0765): 1.155 ± 0.024 mPa·s | electrical conductivity (293.15 K, m1 = 0.001): 0.007 ± 0.0012 S/m | electrical conductivity (293.15 K, m1 = 0.0037): 0.0231 ± 0.0013 S/m | electrical conductivity (293.15 K, m1 = 0.0062): 0.0356 ± 0.0014 S/m | electrical conductivity (293.15 K, m1 = 0.0072): 0.0399 ± 0.0015 S/m | electrical conductivity (293.15 K, m1 = 0.008): 0.0439 ± 0.0016 S/m | electrical conductivity (293.15 K, m1 = 0.01): 0.0517 ± 0.0017 S/m | electrical conductivity (293.15 K, m1 = 0.0144): 0.0674 ± 0.0021 S/m | electrical conductivity (293.15 K, m1 = 0.0221): 0.0901 ± 0.0028 S/m | mass density (293.15 K, m1 = 0.00579): 998.44 ± 1.6 kg/m3 | mass density (293.15 K, m1 = 0.007): 998.49 ± 1.6 kg/m3 | mass density (293.15 K, m1 = 0.00801): 998.53 ± 1.6 kg/m3 | mass density (293.15 K, m1 = 0.01056): 998.64 ± 1.6 kg/m3 | mass density (293.15 K, m1 = 0.01278): 998.73 ± 1.6 kg/m3 | mass density (293.15 K, m1 = 0.0158): 998.86 ± 1.6 kg/m3 | mass density (293.15 K, m1 = 0.01707): 998.92 ± 1.6 kg/m3 | mass density (293.15 K, m1 = 0.02056): 999.07 ± 1.6 kg/m3 | mass density (293.15 K, m1 = 0.02523): 999.27 ± 1.6 kg/m3 | viscosity (298.15 K, m1 = 0.0058): 0.925 ± 0.019 mPa·s | viscosity (298.15 K, m1 = 0.0071): 0.93 ± 0.019 mPa·s | viscosity (298.15 K, m1 = 0.0117): 0.943 ± 0.02 mPa·s | viscosity (298.15 K, m1 = 0.0205): 0.964 ± 0.02 mPa·s | viscosity (298.15 K, m1 = 0.0353): 0.993 ± 0.021 mPa·s | viscosity (298.15 K, m1 = 0.0384): 0.998 ± 0.021 mPa·s | viscosity (298.15 K, m1 = 0.0552): 1.026 ± 0.021 mPa·s | viscosity (298.15 K, m1 = 0.0765): 1.058 ± 0.022 mPa·s | electrical conductivity (298.15 K, m1 = 0.001): 0.0079 ± 0.0014 S/m | electrical conductivity (298.15 K, m1 = 0.0037): 0.0262 ± 0.0015 S/m | electrical conductivity (298.15 K, m1 = 0.0062): 0.0404 ± 0.0016 S/m | electrical conductivity (298.15 K, m1 = 0.0072): 0.0452 ± 0.0017 S/m | electrical conductivity (298.15 K, m1 = 0.008): 0.0498 ± 0.0018 S/m | electrical conductivity (298.15 K, m1 = 0.01): 0.0588 ± 0.002 S/m | electrical conductivity (298.15 K, m1 = 0.0144): 0.0771 ± 0.0024 S/m | electrical conductivity (298.15 K, m1 = 0.0221): 0.103 ± 0.0032 S/m | mass density (298.15 K, m1 = 0.00579): 997.28 ± 1.6 kg/m3 | mass density (298.15 K, m1 = 0.007): 997.33 ± 1.6 kg/m3 | mass density (298.15 K, m1 = 0.00801): 997.37 ± 1.6 kg/m3 | mass density (298.15 K, m1 = 0.01056): 997.48 ± 1.6 kg/m3 | mass density (298.15 K, m1 = 0.01278): 997.57 ± 1.6 kg/m3 | mass density (298.15 K, m1 = 0.0158): 997.7 ± 1.6 kg/m3 | mass density (298.15 K, m1 = 0.01707): 997.75 ± 1.6 kg/m3 | mass density (298.15 K, m1 = 0.02056): 997.9 ± 1.6 kg/m3 | mass density (298.15 K, m1 = 0.02523): 998.11 ± 1.6 kg/m3 | viscosity (303.15 K, m1 = 0.0058): 0.838 ± 0.017 mPa·s | viscosity (303.15 K, m1 = 0.0071): 0.842 ± 0.018 mPa·s | viscosity (303.15 K, m1 = 0.0117): 0.857 ± 0.018 mPa·s | viscosity (303.15 K, m1 = 0.0205): 0.879 ± 0.018 mPa·s | viscosity (303.15 K, m1 = 0.0353): 0.911 ± 0.019 mPa·s | viscosity (303.15 K, m1 = 0.0384): 0.917 ± 0.019 mPa·s | viscosity (303.15 K, m1 = 0.0552): 0.945 ± 0.02 mPa·s | viscosity (303.15 K, m1 = 0.0765): 0.979 ± 0.02 mPa·s | electrical conductivity (303.15 K, m1 = 0.001): 0.0089 ± 0.0016 S/m | electrical conductivity (303.15 K, m1 = 0.0037): 0.0297 ± 0.0017 S/m | electrical conductivity (303.15 K, m1 = 0.0062): 0.0454 ± 0.0018 S/m | electrical conductivity (303.15 K, m1 = 0.0072): 0.0507 ± 0.0019 S/m
